Results on ten molecules are retold here after ChEMBL document CHEMBL5325491, “Small-Molecule Hydrophobic Tagging: A Promising Strategy of Druglike Technology for Targeted Protein Degradation” (J Med Chem, 2023).

For assay [1], the target named is TAR DNA-binding protein 43 (Mus musculus) (UniProt Q921F2). Briefly: Induction of TDP-43 degradation in mouse N2a cells at 100 uM measured after 24 hrs by Western blot analysis relative to control. The class given is cell-based. On the technique in general: Immunoblotting shows a protein as a band on a membrane.
Sequence of TAR DNA-binding protein 43 (Mus musculus) (Q921F2 whole entry): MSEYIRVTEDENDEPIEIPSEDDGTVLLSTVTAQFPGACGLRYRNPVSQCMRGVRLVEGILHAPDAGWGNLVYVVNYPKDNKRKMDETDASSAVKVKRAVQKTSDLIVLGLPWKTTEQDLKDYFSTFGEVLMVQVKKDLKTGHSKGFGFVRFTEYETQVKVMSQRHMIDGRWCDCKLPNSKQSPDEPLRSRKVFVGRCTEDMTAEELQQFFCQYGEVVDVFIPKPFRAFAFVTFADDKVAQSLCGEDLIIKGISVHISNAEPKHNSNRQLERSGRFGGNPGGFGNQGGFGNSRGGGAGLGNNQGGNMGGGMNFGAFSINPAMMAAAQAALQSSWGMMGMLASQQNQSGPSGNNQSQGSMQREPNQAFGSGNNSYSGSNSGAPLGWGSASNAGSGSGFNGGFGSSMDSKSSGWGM
Assay [2] addresses T1, Glutathione S-transferase A1 (Homo sapiens) (UniProt P08263).
T1 sequence (whole entry): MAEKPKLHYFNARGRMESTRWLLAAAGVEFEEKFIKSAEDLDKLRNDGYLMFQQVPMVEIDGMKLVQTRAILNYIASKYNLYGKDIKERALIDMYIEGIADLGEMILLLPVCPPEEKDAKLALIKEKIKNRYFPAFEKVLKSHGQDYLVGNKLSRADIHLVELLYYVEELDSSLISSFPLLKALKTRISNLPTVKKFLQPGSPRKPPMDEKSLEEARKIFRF
Nature of the assay: Induction of GSTAlpha1 degradation in human HeLa cells at 80 uM measured after 4 hrs relative to control. The format is cell-based.

Assay [3] concerns the target ALK tyrosine kinase receptor (Homo sapiens, UniProt Q9UM73). Briefly: Induction of ALK (unknown origin) degradation.
In another assay the test system is HCC1187. Briefly: Anticancer activity against EZH2 dependent human HCC1187 cells assessed as cell growth inhibition by MTT assay. The format is functional.
In another assay the test system is HCC70. Nature of the assay: Anticancer activity against EZH2 dependent human HCC70 cells assessed as cell growth inhibition by MTT assay. The class given is functional. A general note: Tetrazolium assays rely on reduction of a dye to a coloured formazan, in cell work by metabolically active cells.
A further assay has as its system BT-549. Briefly: Anticancer activity against EZH2 dependent human BT-549 cells assessed as cell growth inhibition by MTT assay. The class given is functional.
For another assay, the system named is HCC1954. Briefly: Anticancer activity against EZH2 dependent human HCC1954 cells assessed as cell growth inhibition by MTT assay. The format is functional.
A further assay concerns MCF7. Briefly: Anticancer activity against EZH2 dependent human MCF7 cells assessed as cell growth inhibition by MTT assay. The format is functional.
Another assay relates to KARPAS-422. Nature of the assay: Anticancer activity against EZH2 dependent human KARPAS-422 cells assessed as cell growth inhibition by MTT assay. The format is functional.
The subject of the next assay is SU-DHL-8. Briefly: Anticancer activity against EZH2 dependent human SU-DHL-8 cells assessed as cell growth inhibition by MTT assay. The class given is functional.
The target of assay [4] is T1, Glutathione S-transferase A1 (Homo sapiens). Briefly: Induction of GSTAlpha1 degradation in […] cells at 40 uM measured after 4 hrs. The format is cell-based.
The target of assay [5] is T2, Dihydrofolate reductase (Escherichia coli) (UniProt P0ABQ4).
T2 sequence (whole entry): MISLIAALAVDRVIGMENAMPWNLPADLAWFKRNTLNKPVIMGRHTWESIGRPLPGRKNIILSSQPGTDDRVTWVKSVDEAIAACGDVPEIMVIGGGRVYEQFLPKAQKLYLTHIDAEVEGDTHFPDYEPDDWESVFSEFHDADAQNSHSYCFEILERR
Nature of the assay: Induction of Escherichia coli DHFR degradation in […] cells at 80 uM measured after 4 hrs. The class given is cell-based.

The nature of assay [6]: Antiproliferative activity against HER3 dependent human HCC827 Gefitinib-resistant 6 (GR6) cell assessed as cell viability by CellTiter-Glo Luminescent Assay. The format is functional, cell-based. Background: In ATP-based viability assays light output follows the ATP content of the culture.
Assay [7] can be described thus: Antiproliferative activity against HER3 dependent human PC9 Gefitinib-resistant 4 (GR4) cell assessed as cell viability by CellTiter-Glo Luminescent Assay. The format is functional, cell-based.
A further assay relates to OVCAR-8. Nature of the assay: Antiproliferative activity against HER3 dependent human OVCAR-8 cells assessed as cell viability by CellTiter-Glo Luminescent Assay. The format is functional, cell-based.
In the next assay the test system is NCI-H3122. Nature of the assay: Anticancer activity against human NCI-H3122 cells xenografted in mouse assessed as tumor growth inhibition at 20 mg/kg, po administered once every two days for 3 weeks relative to control. The format is functional. The settings on record: NCI-H3122, 504 h, read-out: TGI.
Assay [8] has as its target Microtubule-associated protein tau (Mus musculus) (UniProt P10637). Nature of the assay: Induction of tau degradation in mouse N2a cells at 150 uM measured after 24 hrs by Western blot analysis relative to control. The class given is cell-based.
Assay [9] concerns the target RAC-gamma serine/threonine-protein kinase (Homo sapiens, UniProt Q9Y243). Briefly: Induction of Akt3 (unknown origin) degradation.
Another assay concerns PC-9. Briefly: Anticancer activity against human PC-9 cells xenografted in NSG mouse assessed as tumor growth inhibition at 20 mg/kg, ip administered once every two days for 14 days relative to control. The class given is functional. The settings on record: PC-9, 336 h, time 14 day, read-out: TGI.
Assay [10] has as its target RAC-alpha serine/threonine-protein kinase (Homo sapiens, UniProt P31749). Nature of the assay: Induction of Akt1 (unknown origin) degradation.
A short description of assay [11]: Induction of Akt2 (unknown origin) degradation. The arrangement: species or system Homo sapiens.

Starred links: 1 amine or outer side, 2 acyl side, 3 side chain; linkers in the order of their positions; H or OH if unused. Non-standard residues stand in square brackets, D forms with d. Residues, ends and D or L forms follow the SMILES beside them. *: point of attachment. Adamantane1carbonyl = O=C(C12CC3CC(CC(C3)C1)C2)*; X1 = O=C(C12CC3CC(CC(N[*:1])(C3)C1)C2)[*:2]

As a reminder, the DC50 is the midpoint of the concentration-degradation curve. Low readings indicate degradation at low concentration, high ones degradation only at high concentration. By GI50 is commonly meant the concentration at which growth is held to half of that of the control. One may read the EC50 as the concentration needed to bring the measured effect to its halfway point.

Sequence of ALK tyrosine kinase receptor (Q9UM73 whole entry): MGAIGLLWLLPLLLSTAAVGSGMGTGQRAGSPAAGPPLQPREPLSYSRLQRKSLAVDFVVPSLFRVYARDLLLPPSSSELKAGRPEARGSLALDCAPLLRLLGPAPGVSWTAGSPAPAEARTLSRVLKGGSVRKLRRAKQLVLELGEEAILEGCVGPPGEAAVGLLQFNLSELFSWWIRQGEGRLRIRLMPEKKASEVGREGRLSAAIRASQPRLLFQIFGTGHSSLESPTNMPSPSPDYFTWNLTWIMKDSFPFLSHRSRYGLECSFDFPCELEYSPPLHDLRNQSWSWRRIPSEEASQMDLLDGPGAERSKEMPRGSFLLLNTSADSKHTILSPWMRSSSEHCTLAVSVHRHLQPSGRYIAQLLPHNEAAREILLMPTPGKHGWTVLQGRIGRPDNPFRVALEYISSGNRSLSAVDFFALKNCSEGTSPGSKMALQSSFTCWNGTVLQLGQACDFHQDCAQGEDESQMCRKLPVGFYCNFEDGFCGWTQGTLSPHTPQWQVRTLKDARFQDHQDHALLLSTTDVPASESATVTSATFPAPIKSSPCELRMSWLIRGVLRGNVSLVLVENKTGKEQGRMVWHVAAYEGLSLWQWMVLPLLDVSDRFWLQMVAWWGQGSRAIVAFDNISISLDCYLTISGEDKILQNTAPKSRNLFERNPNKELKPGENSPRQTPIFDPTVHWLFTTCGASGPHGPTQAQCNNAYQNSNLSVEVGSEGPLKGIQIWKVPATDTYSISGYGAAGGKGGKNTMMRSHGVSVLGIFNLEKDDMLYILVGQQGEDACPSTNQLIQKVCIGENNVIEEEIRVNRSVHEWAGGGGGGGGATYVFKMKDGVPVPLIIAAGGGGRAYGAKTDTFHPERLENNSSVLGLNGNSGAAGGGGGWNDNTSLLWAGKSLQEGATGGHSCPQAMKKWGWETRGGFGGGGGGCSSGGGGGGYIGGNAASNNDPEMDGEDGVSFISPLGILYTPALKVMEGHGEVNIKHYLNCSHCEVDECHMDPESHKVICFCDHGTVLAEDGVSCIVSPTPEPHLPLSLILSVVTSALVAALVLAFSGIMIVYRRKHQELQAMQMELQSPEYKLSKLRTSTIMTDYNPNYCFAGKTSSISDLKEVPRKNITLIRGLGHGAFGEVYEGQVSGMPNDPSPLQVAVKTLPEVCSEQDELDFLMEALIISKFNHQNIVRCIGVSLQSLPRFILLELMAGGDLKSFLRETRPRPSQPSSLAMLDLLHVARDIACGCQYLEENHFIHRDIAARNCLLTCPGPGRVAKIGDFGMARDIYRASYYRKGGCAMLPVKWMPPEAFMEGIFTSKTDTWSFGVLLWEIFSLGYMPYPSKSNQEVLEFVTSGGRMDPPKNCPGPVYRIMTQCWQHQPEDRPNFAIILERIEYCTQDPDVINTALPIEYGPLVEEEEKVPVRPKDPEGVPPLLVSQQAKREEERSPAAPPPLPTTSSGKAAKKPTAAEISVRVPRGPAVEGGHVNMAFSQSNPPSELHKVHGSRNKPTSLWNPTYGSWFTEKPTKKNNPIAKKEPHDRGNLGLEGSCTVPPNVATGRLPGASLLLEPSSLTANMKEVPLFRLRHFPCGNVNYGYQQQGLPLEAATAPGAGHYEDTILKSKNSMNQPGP
Sequence of Microtubule-associated protein tau (Mus musculus) (P10637 whole entry): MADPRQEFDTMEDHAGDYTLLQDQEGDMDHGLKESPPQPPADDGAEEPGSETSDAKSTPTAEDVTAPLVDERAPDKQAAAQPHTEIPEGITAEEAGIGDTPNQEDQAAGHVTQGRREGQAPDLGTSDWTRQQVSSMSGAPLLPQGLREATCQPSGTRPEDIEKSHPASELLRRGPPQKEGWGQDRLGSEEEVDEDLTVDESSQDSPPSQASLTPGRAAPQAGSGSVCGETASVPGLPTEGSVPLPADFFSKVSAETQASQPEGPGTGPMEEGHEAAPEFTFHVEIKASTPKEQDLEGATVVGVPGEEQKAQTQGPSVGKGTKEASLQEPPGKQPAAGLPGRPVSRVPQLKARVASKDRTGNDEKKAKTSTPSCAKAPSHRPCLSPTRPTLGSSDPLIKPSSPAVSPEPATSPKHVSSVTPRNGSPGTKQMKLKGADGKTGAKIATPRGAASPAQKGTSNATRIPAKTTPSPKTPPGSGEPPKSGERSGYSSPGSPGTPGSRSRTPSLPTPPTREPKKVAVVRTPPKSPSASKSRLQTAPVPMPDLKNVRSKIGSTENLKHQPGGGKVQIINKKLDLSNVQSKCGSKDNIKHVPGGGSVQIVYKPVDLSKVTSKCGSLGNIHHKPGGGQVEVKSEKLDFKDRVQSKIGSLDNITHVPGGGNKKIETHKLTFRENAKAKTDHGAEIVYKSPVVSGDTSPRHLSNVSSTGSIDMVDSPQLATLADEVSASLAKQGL
Sequence of RAC-alpha serine/threonine-protein kinase (P31749 whole entry): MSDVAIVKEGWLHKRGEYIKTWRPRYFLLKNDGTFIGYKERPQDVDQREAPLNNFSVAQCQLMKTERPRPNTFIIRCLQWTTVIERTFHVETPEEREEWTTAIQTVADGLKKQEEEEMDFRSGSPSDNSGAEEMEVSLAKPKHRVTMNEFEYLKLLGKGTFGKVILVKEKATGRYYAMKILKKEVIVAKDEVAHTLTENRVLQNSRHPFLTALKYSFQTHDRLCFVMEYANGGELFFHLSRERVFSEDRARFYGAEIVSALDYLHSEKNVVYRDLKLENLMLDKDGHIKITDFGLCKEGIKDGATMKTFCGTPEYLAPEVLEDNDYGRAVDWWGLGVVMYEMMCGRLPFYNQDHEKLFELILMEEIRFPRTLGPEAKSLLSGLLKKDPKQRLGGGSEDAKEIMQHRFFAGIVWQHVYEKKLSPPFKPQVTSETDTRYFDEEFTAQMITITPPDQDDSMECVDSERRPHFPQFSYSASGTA
Sequence of RAC-gamma serine/threonine-protein kinase (Q9Y243 whole entry): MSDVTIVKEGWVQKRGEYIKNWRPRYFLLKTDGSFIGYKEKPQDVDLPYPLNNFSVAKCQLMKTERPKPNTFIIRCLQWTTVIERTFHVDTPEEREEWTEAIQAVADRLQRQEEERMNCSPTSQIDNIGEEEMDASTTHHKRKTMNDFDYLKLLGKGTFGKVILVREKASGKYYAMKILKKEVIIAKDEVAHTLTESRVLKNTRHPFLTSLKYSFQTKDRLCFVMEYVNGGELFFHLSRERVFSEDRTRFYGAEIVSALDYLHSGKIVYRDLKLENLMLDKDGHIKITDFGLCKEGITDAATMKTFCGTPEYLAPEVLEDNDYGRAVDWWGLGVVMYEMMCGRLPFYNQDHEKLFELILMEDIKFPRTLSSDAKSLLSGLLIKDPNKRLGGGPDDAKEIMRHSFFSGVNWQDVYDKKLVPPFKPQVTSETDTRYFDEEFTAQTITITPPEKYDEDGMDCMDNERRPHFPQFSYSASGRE

As for `CC[C@H](C)[C@H](NC(=O)CNC(=O)[C@H](CCCCN)NC(=O)[C@@H](NC(=O)[C@@H](NC(=O)[C@H](CC(C)C)NC(=O)[C@H](CC(=O)O)NC(=O)[C@H](CCC(=O)O)NC(=O)[C@H](CO)NC(=O)CNC(=O)[C@H](CO)NC(=O)CNC(=O)[C@H](CCCCN)NC(=O)C12CC3CC(CC(NC(=O)C45CC6CC(CC(C6)C4)C5)(C3)C1)C2)[C@@H](C)CC)[C@@H](C)CC)C(=O)N[C@@H](CO)C(=O)N[C@H](C(=O)NCC(=O)N[C@@H](CCCNC(=N)N)C(=O)N[C@@H](CCCCN)C(=O)N[C@@H](CCCCN)C(=O)N[C@@H](CCCNC(=N)N)C(=O)N[C@@H](CCCNC(=N)N)C(=O)N[C@@H](CCC(N)=O)C(=O)N[C@@H](CCCNC(=N)N)C(=O)N[C@@H](CCCNC(=N)N)C(=O)N[C@@H](CCCNC(=N)N)C(N)=O)C(C)C` (Adamantane1carbonyl-[X1]KGSGSEDLIIKGISVGRKKRRQRRR-NH2), the Activity in assay [1] is 80%.

Regarding `C=C(CC)C(=O)c1ccc(OCC(=O)O)c(Cl)c1Cl`, the Activity in assay [2] is 75%.

On to `COc1cc(N2CCN(CC(=O)NCC3CC4C=CC3C4)CC2)ccc1Nc1ncc(Cl)c(Nc2ccccc2P(C)(C)=O)n1` (stereo not drawn), for which half-maximal degradation in assay [3] (DC50) was put at 89 nM.

Turning to `Cc1cc(C)c(CNC(=O)c2cc(-c3ccc(N4CCN(CCNC(=O)CC56CC7CC(CC(C7)C5)C6)CC4)nc3)cc3c2cnn3C(C)C)c(=O)[nH]1`, the GI50 with HCC1187, with HCC70, in the assay on BT-549, in the assay on HCC1954, with MCF7 and in the assay on KARPAS-422 was 1100 nM in each case. The GI50 in the assay on SU-DHL-8 came to 1100 nM.

As to `COc1cc(Cc2cnc(N)nc2N)cc(OC)c1OCC(=O)NCCCCCCNC(=O)[C@@H](CCCN/C(=N\C(=O)OC(C)(C)C)NC(=O)OC(C)(C)C)NC(=O)OC(C)(C)C`, the Activity in assay [4] came to 80%; in assay [5], 60%.

On to `C=CC(=O)Nc1cc(-c2nn(C3CCN(CCNC(=O)[C@H](C)CCC45CC6CC(CC(C6)C4)C5)CC3)c3ncnc(N)c23)ccc1Oc1ccccc1`, for which the EC50 (in assay [6]; in assay [7]; in the assay on OVCAR-8) was 800 nM throughout.

Turning to `CCc1cc2c(cc1N1CCN(CCCCC(=O)NCC3CC4C=CC3C4)CC1)C(C)(C)c1[nH]c3cc(C#N)ccc3c1C2=O` (stereo not drawn), in [3], the DC50 turned out to be 134 nM. Besides, the inhibition in vivo at 20 mg/kg in the assay with NCI-H3122 amounted to 58%.

Molecule `C[C@H](NC(=O)[C@H](CC(=O)O)NC(=O)[C@H](CCC(N)=O)NC(=O)[C@H](Cc1ccc(O)cc1)NC(=O)[C@H](CCC(N)=O)NC(=O)[C@H](CCC(N)=O)NC(=O)[C@H](Cc1ccc(O)cc1)NC(=O)C12CC3CC(CC(C3)C1)C2)C(=O)N[C@H](C(=O)N[C@@H](C)C(=O)N[C@@H](CC(=O)O)C(=O)N[C@@H](CCC(=O)O)C(=O)N[C@@H](CCC(N)=O)C(=O)NCC(=O)N[C@H](CCCNC(=N)N)C(=O)N[C@H](CCCNC(=N)N)C(=O)N[C@H](CCCNC(=N)N)C(=O)N[C@H](CCCNC(=N)N)C(=O)N[C@H](CCCNC(=N)N)C(=O)N[C@H](CCCNC(=N)N)C(=O)N[C@H](CCCNC(=N)N)C(=O)N[C@H](CCCNC(=N)N)C(N)=O)[C@@H](C)O` returned an Activity in assay [8] of 88%.

Turning to `Cc1cc(Nc2ncc(Cl)c(Nc3ccccc3S(=O)(=O)C(C)C)n2)c(OC(C)C)cc1C1CCN(CC(=O)NCC2CC3C=CC2C3)CC1` (stereo not drawn), in assay [3], the DC50 stood at 314 nM.

With `COc1cc(N2CCN(CCCCCCCCCCCCNC(=O)CC34CC5CC(CC(C5)C3)C4)CC2)ccc1Nc1ncc2c(C)cc(=O)n(-c3cccc(NC(=O)C4CC4)c3)c2n1`, the figures for the DC50 in [9], in assay [10] and in [11] were 13 nM, > 1000 nM and > 1000 nM, respectively. Also, the inhibition in vivo at 20 mg/kg with PC-9 was determined as 75%.
